From patent US20090291095A1, “NANOEMULSION ADJUVANTS” (The Regents of the University of Michigan, priority 2008, published 2009)

Tested on: virus
Assay: Virus inactivation by BCTP component
Details: concentrations equivalent to 11% BCTP

TRITON-X100
ability to inactivate a virus: less ability to inactivate a virus
